System: tumor infiltrating CD45 + cells
Assay: scRNA seq of tumor infiltrating CD45+ cells in immunized mice
Type: in vivo, BALB/cJ mice
From the text: Tumor microenvironment (TME) of Ccdc85c^MUT-immunized mice was examined using single cell RNA sequencing (scRNA seq). BMDCs- immunized mice were used as controls. As a peptide control, mice immunized with a neoepitope Alms1^MUT were used. […] Mice were immunized with Ccdc85c^MUT, Alms1^MUT (peptide control) or BMDCs (control) as described in Methods, and were challenged with Meth A. RNA from CD45 + cells (estimated 15,925 cells for the four libraries after QC, with an average coverage of 32,663 reads per cell and median 1,339 genes per cell) was sequenced. Data from the four libraries were pooled and clustered based on the gene expression pattern of each as described in Methods. Annotation of the clusters was informed by both differentially expressed genes (DE Genes) and per cluster highly expressed genes identified by the TF-IDF analysis as described in Methods. Two major and distinct clusters were identified namely, myeloid and lymphoid. […] The proportion of lymphoid versus myeloid compartments in the Ccdc85c^MUT library was very different compared to the Alms1^MUT or control groups. The Ccdc85c^MUT library was mostly composed of lymphoid cells (62.68% lymphoid and 37.32% myeloid), while the control groups and mice immunized with Alms1^MUT were mostly composed of the myeloid compartment (~35% lymphoid and ~64% myeloid) (Fig. 2a, right panel). In order to study different cell types, lymphoid and myeloid clusters were re-clustered into 6 and 9 sub-clusters, respectively (Fig. 2a, bottom panel). The six identified lymphoid clusters were: CD4 T cells (CD4(1)), NKC(1), naive/early activated CD4 T cells (CD4(2), defined by a high expression of Sell, Il7r, Tcf7 and Ccr7 genes and low expression of Il2ra and lack of expression of effector and cytotoxicity genes), NKC(2) (less cytotoxic and active than NKC(1)), CD8 T cells (CD8) and proliferating CD4/CD8 T cells (Pr. CD4/CD8, defined by higher expression of Stmn1 and Mki67 genes and cell cycle gene expression analysis, described in Methods). The selected genes used as markers to annotate each lymphocyte cluster are listed in the summary heat map (Fig. 2b, right panel).
Fig. 2 Immune response in mice immunized with Ccdc85c^MUT and control neoepitope Alms1.1^MUT. a Tumors from mice immunized with Ccdc85c^MUT or Alms1.1^MUT as well as two groups of control mice immunized with BMDCs were harvested 10 days after tumor challenge. Tumor infiltrating CD45 + cells were sorted and analyzed by scRNA seq as described in Methods and Supplementary Fig 9b. Combined scRNA seq data from four libraries were analyzed. The t-SNE[34] plots of all intra-tumoral immune cells as well as myeloid and lymphoid compartments are shown in the top left panel. Myeloid and lymphoid composition for each library is shown on the right panel. The myeloid and lymphoid sub-clusters are shown in the bottom panels. See text for definition of each sub-cluster. b Heat maps of the indicated genes in the myeloid and lymphoid compartments are shown. The heat map genes were selected from the list of differentially expressed genes, genes with a high average TF-IDF score, and typical cell type markers. The average gene expression for each cluster was normalized by dividing it from the maximum value of each row (gene). c Summary heat map of selected genes associated with cytotoxicity for pooled activated T cells is shown. The heat map illustrates scaled (Z-scored) average gene expression by library. TEXT PRINTED IN THE PICTURE: (a) Alms1.1^MUT: Lymphoid cells: 34.28%; Myeloid cells: 65.72% | (a) Ccdc85c^MUT: Lymphoid cells: 62.68%; Myeloid cells: 37.32% DOUBTS OF THE COPYIST ABOUT THIS PICTURE: Panel a, bar chart: no measure is printed beside the percentages. I assigned them to 'Lymphoid cells' (blue) and 'Myeloid cells' (red) only by matching the colours of the plot next to it. / Panel a, bar chart: the control bars also carry percentages (Cont.1: 35.75% and 64.25%; Cont.2: 37.55% and 62.45%). […]

[1] = compared to control or Alms1^MUT libraries
[2] = tumors harvested 10 days after Meth A challenge

DPSSTYIRPFETKVKLLD [18-mer peptide with the mutant amino acid near the center]
contribution of library to myeloid cluster Mφ1 (Mφ1): ~ 20%
contribution of library to myeloid cluster Mφ2 (Mφ2, highest apart from Mφ1): 13.4%
contribution of library to myeloid cluster Mφ3 (Mφ3, lowest contribution): 1.6%
expression of cytotoxicity (Gzmb, Prf, Nkg7) and effector function (Ifng) genes in T cells [1]: significantly higher
expression of genes involved in TCR engagement (Nr4a1 and Irf4) in T cells [1]: significantly higher
expression of Eomes in T cells (compared to other libraries): significantly higher
contribution of library to pooled activated CD4 and CD8 T cells (clusters 1 and 5) (proliferating CD4/CD8 T excluded): 31%
Lymphoid cells, fraction of intra-tumoral immune cells [2]: 62.68%
Myeloid cells, fraction of intra-tumoral immune cells [2]: 37.32%
fraction of NK cells from the NKC(1) (more cytotoxic and active) cluster [2]: ~ 80%

Source: paper PMC8571378, “Reversion analysis reveals the in vivo immunogenicity of a poorly MHC I-binding cancer neoepitope” (Nature Communications, 2021)
